# Read-outs that look alike come from different tables or passages of the source.
# Key:
# [1] = free therapeutic Cmax in humans; ref FDA-approved drug packages, PharmaPendium; cited from earlier work
# [2] = test system: hiPSC-CMs (iCell-Cardiomyocytes^2); test: MEA impedance (cytotoxicity readout) in hiPSC-CMs; conditions: for effect on impedance: all concentrations tested, up to 96 h
# [3] = test system: hiPSC-CMs (iCell-Cardiomyocytes^2); test: ApoLive-Glo Multiplex Assay: viability (live cells); format: cell-based, human
# Description: (§1) iCell-Cardiomyocytes^2 (Fujifilm Cellular Dynamics Inc., Madison, WI, United States) were seeded into 96 well-plates (Greiner Bio One, ref. 655946) according to the manufacturer instructions, at a density of 50 k cells/well. […] To assess effects on viability and cytotoxicity, two assay combination kits were used: 1) RealTime-Glo™ Annexin V Apoptosis and Necrosis Assay [Promega, JA1011 ([Kupcho et al., 2019])] and 2) ApoLive-Glo Multiplex Assay [Promega, G6410 ([Flörkemeier et al., 2022])]. The assays were performed according to manufacturer instructions. The experiments were repeated at 24, 48, and 72 h in order to assess any time-dependent change in live cells or activation of cell-death pathways.
# (§2) The nonparametric Wilcoxon-Mann Whitney Test was used to compare the percent change from the baseline (Δ%) value between the group treated with the compound at a given concentration and the group treated with the DMSO at each matching time points. A two-sided test at 5% significance level was considered. […] To assess the physiological relevance of changes, a tolerance interval of DMSO experiments was calculated at each time point, for each parameter. Specifically, the Δ% values of all (pooled) DMSO wells (N = 81) were used to obtain the non-parametric 80%–95% (p = 0.80 & 1-α = 0.95) tolerance interval (TI). TIs indicate an interval where, with a certain confidence level (1- α = 0.95), a specified proportion (p = 0.80) of percent change for DMSO data falls. The lower and upper limits based on the TI values were used as cut-offs for the interpretation of the changes. For the cytotoxicity assays, measurements of fluorescence (after background fluorescence subtraction) from wells treated with the compounds were normalized by the average value of vehicle experiments (DMSO 0.1%) to obtain a DMSO-corrected, delta/delta percent change. Experiments from each condition, as delta/delta percent, were averaged and expressed as mean ± SD. Statistical analysis was performed using a non-parametric test (Kruskal-Wallis) and each treatment condition was compared to the relative DMSO 0.1%. Differences were considered statistically significant when the p-value was smaller than 0.05.
# [4] = test system: caspases 3,7 in hiPSC-CMs; test: ApoLive-Glo Multiplex Assay: apoptosis, caspases 3,7 activation; format: cell-based, human
# Description: as §1, §2
# [5] = test system: hiPSC-CMs (iCell-Cardiomyocytes^2); test: RealTime-Glo Annexin V Apoptosis and Necrosis Assay: necrosis; format: cell-based, human
# Description: as §1, §2
# [6] = test system: Annexin V activation in hiPSC-CMs; format: cell-based
# Description: The assays were performed according to manufacturer instructions.
# as §2, with “Specifically, the Δ% values of all (pooled) DMSO wells (N = 81) were used to obtain the non-parametric 80%–95% (p = 0.80 & 1-α = 0.95) tolerance interval (TI).” left out
compound,measurement,setting,value
CCN(CC)CCNC(=O)c1c(C)[nH]c(/C=C2\C(=O)Nc3ccc(F)cc32)c1C [Sunitinib],Free Cmax,[1],0.03 µM
same,"Imp (impedance), % change from baseline","[2]; 0.03 µM, 2h",5±4%
same,"Imp (impedance), % change from baseline","[2]; 0.03 µM, 24h",-12±3%
same,"Imp (impedance), % change from baseline","[2]; 0.03 µM, 48h",-8±6%
same,"Imp (impedance), % change from baseline","[2]; 0.03 µM, 72h",-8±4%
same,"Imp (impedance), % change from baseline","[2]; 0.03 µM, 96h",-4±4%
same,"Imp (impedance), % change from baseline","[2]; 0.1 µM, 2h",6±3%
same,"Imp (impedance), % change from baseline","[2]; 0.1 µM, 24h",-10±4%
same,"Imp (impedance), % change from baseline","[2]; 0.1 µM, 48h",-7±4%
same,"Imp (impedance), % change from baseline","[2]; 0.1 µM, 72h",-5±3%
same,"Imp (impedance), % change from baseline","[2]; 0.1 µM, 96h",-2±3%
same,"Imp (impedance), % change from baseline","[2]; 0.3 µM, 2h",5±6%
same,"Imp (impedance), % change from baseline","[2]; 0.3 µM, 24h",-7±3%
same,"Imp (impedance), % change from baseline","[2]; 0.3 µM, 48h",-3±5%
same,"Imp (impedance), % change from baseline","[2]; 0.3 µM, 72h",-3±2%
same,"Imp (impedance), % change from baseline","[2]; 0.3 µM, 96h",-3±3%
same,"Imp (impedance), % change from baseline","[2]; 1 µM, 2h",12±7%
same,"Imp (impedance), % change from baseline","[2]; 1 µM, 24h",-9±6%
same,"Imp (impedance), % change from baseline","[2]; 1 µM, 48h",-7±7%
same,"Imp (impedance), % change from baseline","[2]; 1 µM, 72h",-8±7%
same,"Imp (impedance), % change from baseline","[2]; 1 µM, 96h",-5±6%
same,effect on impedance,[2],did not cause significant changes in the impedance signal
same,"Live Cells (viability), Mean±SD","[3]; 1 µM, 24h",-12.5±1.8 Δ/Δ%
same,"Live Cells (viability), Mean±SD","[3]; 1 µM, 48h",-8.8±2.9 Δ/Δ%
same,"Live Cells (viability), Mean±SD","[3]; 1 µM, 72h",5.8±5.9 Δ/Δ%
same,number of live cells,[3]; 3 µM,did not cause a relevant change
same,"Live Cells (viability), Mean±SD","[3]; 3 µM, 72h",-21.4±3.7 Δ/Δ%
same,"Live Cells (viability), Mean±SD","[3]; 3 µM, 24h",-1.8±19.3 Δ/Δ%
same,"Live Cells (viability), Mean±SD","[3]; 3 µM, 48h",-13.1±9.7 Δ/Δ%
same,number of live cells,"[3]; 10 µM, 24, 48, 72 h",significant decrease in the number of live cells
same,"concentration at which decrease in live-cell count occurred, times the median fCmax",[3]; 48 h time point,higher than 300
same,"Caspases 3, 7 (apoptosis activation), Mean±SD","[4]; 1 µM, 24h",11±8.3 Δ/Δ%
same,"Caspases 3, 7 (apoptosis activation), Mean±SD","[4]; 1 µM, 72h",70.2±31.9 Δ/Δ%
same,"Caspases 3, 7 (apoptosis activation), Mean±SD","[4]; 10 µM, 48h",42.9±61.5 Δ/Δ%
same,"Caspases 3, 7 (apoptosis activation), Mean±SD","[4]; 10 µM, 72h",-45±134.8 Δ/Δ%
same,"Necrosis, Mean±SD","[5]; 1 µM, 72h",88.5±23.2 Δ/Δ%
same,necrosis-driven cell death,[5]; especially at 10 µM,predominant necrosis-driven cell death
same,"Annexin V (apoptosis activation), Mean±SD","[6]; 1 µM, 24h",-7.5±2.1 Δ/Δ%
same,"Annexin V (apoptosis activation), Mean±SD","[6]; 1 µM, 48h",-11.9±4.5 Δ/Δ%
same,"Annexin V (apoptosis activation), Mean±SD","[6]; 1 µM, 72h",-0.3±7 Δ/Δ%
same,"Annexin V (apoptosis activation), Mean±SD","[6]; 3 µM, 24h",7±8.3 Δ/Δ%
same,"Annexin V (apoptosis activation), Mean±SD","[6]; 10 µM, 48h",14.8±35.2 Δ/Δ%
same,"Annexin V (apoptosis activation), Mean±SD","[6]; 10 µM, 72h",-32.7±15.7 Δ/Δ%
C[C@H](CS)C(=O)N1CCC[C@H]1C(=O)O [Captopril],Free Cmax,[1],2.3 µM
same,"Imp (impedance), % change from baseline","[2]; 1 µM, 2h",7±5%
same,"Imp (impedance), % change from baseline","[2]; 1 µM, 24h",-7±1%
same,"Imp (impedance), % change from baseline","[2]; 1 µM, 48h",-9±4%
same,"Imp (impedance), % change from baseline","[2]; 1 µM, 72h",-2±3%
same,"Imp (impedance), % change from baseline","[2]; 1 µM, 96h",-4±5%
same,"Imp (impedance), % change from baseline","[2]; 3 µM, 72h",1±4%
same,"Imp (impedance), % change from baseline","[2]; 3 µM, 96h",-1±4%
same,"Imp (impedance), % change from baseline","[2]; 3 µM, 2h",9±3%
same,"Imp (impedance), % change from baseline","[2]; 3 µM, 24h",-6±3%
same,"Imp (impedance), % change from baseline","[2]; 3 µM, 48h",-7±4%
same,"Imp (impedance), % change from baseline","[2]; 10 µM, 2h",9±3%
same,"Imp (impedance), % change from baseline","[2]; 10 µM, 24h",-5±3%
same,"Imp (impedance), % change from baseline","[2]; 10 µM, 48h",-10±5%
same,"Imp (impedance), % change from baseline","[2]; 10 µM, 72h",-1±5%
same,"Imp (impedance), % change from baseline","[2]; 10 µM, 96h",-4±5%
same,"Imp (impedance), % change from baseline","[2]; 30 µM, 2h",8±2%
same,"Imp (impedance), % change from baseline","[2]; 30 µM, 24h",-4±3%
same,"Imp (impedance), % change from baseline","[2]; 30 µM, 48h",-8±2%
same,"Imp (impedance), % change from baseline","[2]; 30 µM, 72h",1±5%
same,"Imp (impedance), % change from baseline","[2]; 30 µM, 96h",-4±6%
same,effect on impedance,[2],did not have a significant effect on impedance
same,"Live Cells (viability), Mean±SD","[3]; 10 µM, 24h",-8.4±17.4 Δ/Δ%
same,"Live Cells (viability), Mean±SD","[3]; 10 µM, 48h",-9.1±9.5 Δ/Δ%
same,"Live Cells (viability), Mean±SD","[3]; 10 µM, 72h",2.4±8.5 Δ/Δ%
same,number of live cells,"[3]; any of the time points (24, 48, 72 h)",did not show any significant change in live cell number
same,"Caspases 3, 7 (apoptosis activation), Mean±SD","[4]; 10 µM, 24h",-6.9±11.1 Δ/Δ%
same,"Caspases 3, 7 (apoptosis activation), Mean±SD","[4]; 10 µM, 48h",-3±10.7 Δ/Δ%
same,"Caspases 3, 7 (apoptosis activation), Mean±SD","[4]; 10 µM, 72h",-3.6±5 Δ/Δ%
same,"Necrosis, Mean±SD","[5]; 10 µM, 24h",21.5±33.7 Δ/Δ%
same,"Necrosis, Mean±SD","[5]; 10 µM, 48h",-8.1±21.1 Δ/Δ%
same,"Necrosis, Mean±SD","[5]; 10 µM, 72h",13.9±44.2 Δ/Δ%
same,necrosis activation,"[5]; 24, 48, 72 h",did not display any significant changes in necrosis or apoptosis activation
same,apoptosis activation,"[6]; 24, 48, 72 h",did not display any significant changes in necrosis or apoptosis activation
